The numbers were not newly measured in patent US10085951B2, “Curcuminoid formulations and related methods of treatment” (DESIGNS FOR HEALTH, INC., priority 2014, dated 2018), which cites them from elsewhere.

Each structure is given as a SMILES string.

On to `COc1cc(/C=C/C(=O)CC(=O)/C=C/c2ccc(O)c(OC)c2)ccc1O` [curcumin, 1,6-heptadiene-3,5-dione1,7-bis (4-hydroxy-3-methoxyphenyl)-(1E,6E)], for which the “Solubility in ethanol, dimethylsulfoxide and acetone” value was “soluble”; the “Solubility in water and ether” value was “practically insoluble”.
